According to patent US20260209250A1, “CRYSTAL FORM OF KRAS G12D INHIBITOR AND PREPARATION METHOD THEREFOR” (priority 2022, published 2026):

Assays:
[1] = Crystal form stability study (influencing factor experiments); assay type: physicochemical; conditions: for Physical and chemical properties (conclusion of influencing factor experiments): high temperatures and high humidities for 30 days
Protocol: Samples of the crystal forms A, B, C, I, J, and K of the compound represented by formula (I) were taken, spread in open containers, and left to stand under conditions of light exposure (4500 Lux), high temperatures (40° C. and 60° C.), and high humidities (RH 75% and RH 92.5%) for 30 days to investigate their stability, and the results are shown in Table 16.

[2] = Long-term/accelerated stability; assay type: physicochemical
[3] = 40° C., 10 days, open container
[4] = 40° C., 30 days, open container
[5] = 60° C., 10 days, open container
[6] = 60° C., 30 days, open container
[7] = 75% RH, 10 days, open container
[8] = 75% RH, 30 days, open container
[9] = 92.5% RH, 5 days, open container
[10] = 92.5% RH, 10 days, open container
[11] = 92.5% RH, 30 days, open container
[12] = light exposure (4500 Lux), 5 days, open container
[13] = light exposure (4500 Lux), 10 days, open container
[14] = light exposure (4500 Lux), 30 days, open container

CCc1c(F)ccc2cc(O)cc(-c3nc4c5c(nc(OC[C@@]67CCCN6C[C@H](F)C7)nc5c3F)N3C[C@H]5CC[C@H](N5)[C@H]3CO4)c12 [Crystal form A, 5-Ethyl-6-fluoro-4-((5aS,6S,9R)-1-fluoro-12-(((2R,7aS)-2-fluorotetrahydro-1H-pyrrolizin-7a(5H)-yl)methoxy)-5a,6,7,8,9,10-hexahydro-5H-4-oxa-3,10a,11,13,14-pentaaza-6,9-methanonaphtho[1,8-ab]heptalen-2-yl)naphthalen-2-ol]
Color and state ([1]; 40° C., 5 days, open container): Off-white solid | Crystal form ([1]; 40° C., 5 days, open container): Did not change | Purity % ([1]; 40° C., 5 days, open container): 99.2% | Color and state [1, 3]: Off-white solid | Crystal form [1, 3]: Did not change | Purity % [1, 3]: 99.2% | Color and state [1, 4]: Off-white solid | Crystal form [1, 4]: Did not change | Purity % [1, 4]: 99.1% | Color and state ([1]; 60° C., 5 days, open container): Off-white solid | Crystal form ([1]; 60° C., 5 days, open container): Did not change | Purity % ([1]; 60° C., 5 days, open container): 99.1% | Color and state [1, 5]: Off-white solid | Crystal form [1, 5]: Did not change | Purity % [1, 5]: 99.0% | Color and state [1, 6]: Off-white solid | Crystal form [1, 6]: Did not change | Purity % [1, 6]: 98.5% | Color and state ([1]; 75% RH, 5 days, open container): Off-white solid | Crystal form ([1]; 75% RH, 5 days, open container): Did not change | Purity % ([1]; 75% RH, 5 days, open container): 99.3% | Color and state [1, 7]: Off-white solid | Crystal form [1, 7]: Did not change | Purity % [1, 7]: 99.3% | Color and state [1, 8]: Off-white solid | Crystal form [1, 8]: Did not change | Purity % [1, 8]: 99.3% | Color and state [1, 9]: Off-white solid | Crystal form [1, 9]: Did not change | Purity % [1, 9]: 99.3% | Color and state [1, 10]: Off-white solid | Crystal form [1, 10]: Did not change | Purity % [1, 10]: 99.4% | Color and state [1, 11]: Off-white solid | Crystal form [1, 11]: Did not change | Purity % [1, 11]: 99.3% | Color and state ([1]; Initial, 0 days): Off-white solid | Purity % ([1]; Initial, 0 days): 99.3% | Physical and chemical properties (conclusion of influencing factor experiments) [1]: good physical and chemical properties | Color and state [1, 12]: Off-white solid | Crystal form [1, 12]: Did not change | Purity % [1, 12]: 98.7% | Color and state [1, 13]: Off-white solid | Crystal form [1, 13]: Did not change | Purity % [1, 13]: 98.5% | Color and state [1, 14]: Pale yellow solid | Crystal form [1, 14]: Did not change | Purity % [1, 14]: 95.8% | Purity % 1 month ([2]; 25° C./60% RH): 99.3% | Purity % 3 months ([2]; 25° C./60% RH): 99.3% | Purity % 6 months ([2]; 25° C./60% RH): 99.3% | Purity % Initial ([2]; 25° C./60% RH): 99.3% | Purity % 1 month ([2]; 40° C./75% RH): 99.3% | Purity % 3 months ([2]; 40° C./75% RH): 99.2% | Purity % 6 months ([2]; 40° C./75% RH): 99.1% | Purity % Initial ([2]; 40° C./75% RH): 99.3%

CCc1c(F)ccc2cc(O)cc(-c3nc4c5c(nc(OC[C@@]67CCCN6C[C@H](F)C7)nc5c3F)N3C[C@H]5CC[C@H](N5)[C@H]3CO4)c12 [Crystal form C, 5-Ethyl-6-fluoro-4-((5aS,6S,9R)-1-fluoro-12-(((2R,7aS)-2-fluorotetrahydro-1H-pyrrolizin-7a(5H)-yl)methoxy)-5a,6,7,8,9,10-hexahydro-5H-4-oxa-3,10a,11,13,14-pentaaza-6,9-methanonaphtho[1,8-ab]heptalen-2-yl)naphthalen-2-ol]
Color and state ([1]; 40° C., 5 days, open container): Off-white solid | Crystal form ([1]; 40° C., 5 days, open container): Did not change | Purity % ([1]; 40° C., 5 days, open container): 99.3% | Color and state [1, 3]: Off-white solid | Crystal form [1, 3]: Did not change | Purity % [1, 3]: 99.3% | Color and state [1, 4]: Off-white solid | Crystal form [1, 4]: Did not change | Purity % [1, 4]: 98.5% | Color and state ([1]; 60° C., 5 days, open container): Off-white solid | Crystal form ([1]; 60° C., 5 days, open container): Did not change | Purity % ([1]; 60° C., 5 days, open container): 99.0% | Color and state [1, 5]: Off-white solid | Crystal form [1, 5]: Did not change | Purity % [1, 5]: 99.0% | Color and state [1, 6]: Off-white solid | Crystal form [1, 6]: Did not change | Purity % [1, 6]: 97.9% | Color and state ([1]; 75% RH, 5 days, open container): Off-white solid | Crystal form ([1]; 75% RH, 5 days, open container): Did not change | Purity % ([1]; 75% RH, 5 days, open container): 99.6% | Color and state [1, 7]: Off-white solid | Crystal form [1, 7]: Did not change | Purity % [1, 7]: 99.6% | Color and state [1, 8]: Off-white solid | Crystal form [1, 8]: Did not change | Purity % [1, 8]: 99.5% | Color and state [1, 9]: Off-white solid | Crystal form [1, 9]: Did not change | Purity % [1, 9]: 99.6% | Color and state [1, 10]: Off-white solid | Crystal form [1, 10]: Did not change | Purity % [1, 10]: 99.6% | Color and state [1, 11]: Off-white solid | Crystal form [1, 11]: Did not change | Purity % [1, 11]: 99.4% | Color and state ([1]; Initial, 0 days): Off-white solid | Purity % ([1]; Initial, 0 days): 99.7% | Physical and chemical properties (conclusion of influencing factor experiments) [1]: good physical and chemical properties | Color and state [1, 12]: Off-white solid | Crystal form [1, 12]: Did not change | Purity % [1, 12]: 99.2% | Color and state [1, 13]: Off-white solid | Crystal form [1, 13]: Did not change | Purity % [1, 13]: 98.7% | Color and state [1, 14]: Pale yellow solid | Crystal form [1, 14]: Did not change | Purity % [1, 14]: 97.9% | Purity % 1 month ([2]; 25° C./60% RH): 99.7% | Purity % 2 months ([2]; 25° C./60% RH): 99.6% | Purity % 3 months ([2]; 25° C./60% RH): 99.6% | Purity % Initial ([2]; 25° C./60% RH): 99.7% | Purity % 1 month ([2]; 40° C./75% RH): 99.5% | Purity % 2 months ([2]; 40° C./75% RH): 99.4% | Purity % 3 months ([2]; 40° C./75% RH): 99.2% | Purity % Initial ([2]; 40° C./75% RH): 99.7%
